Experimental data from ChEMBL document CHEMBL1212818, “Polyamines inhibit carbonic anhydrases by anchoring to the zinc-coordinated water molecule” (J Med Chem, 2010).

Tests used:
Carbonic anhydrase 12 = Carbonic anhydrase 12 (Homo sapiens, UniProt O43570)
Carbonic anhydrase 15 = target: T1, Carbonic anhydrase 15 (Mus musculus, UniProt Q99N23)
T1 sequence (Q99N23 whole entry): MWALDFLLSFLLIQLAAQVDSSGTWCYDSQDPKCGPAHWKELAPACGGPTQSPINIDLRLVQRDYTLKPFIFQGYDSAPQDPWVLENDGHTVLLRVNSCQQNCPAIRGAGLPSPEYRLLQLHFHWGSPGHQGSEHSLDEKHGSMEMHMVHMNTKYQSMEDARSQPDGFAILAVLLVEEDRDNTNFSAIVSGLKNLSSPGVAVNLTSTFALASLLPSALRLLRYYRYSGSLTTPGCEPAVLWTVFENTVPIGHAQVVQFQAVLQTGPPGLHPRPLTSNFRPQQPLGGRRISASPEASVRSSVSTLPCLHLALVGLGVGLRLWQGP

Carbonic anhydrase 1 = Carbonic anhydrase 1 (Homo sapiens, UniProt P00915)
Sequence of Carbonic anhydrase 1 (P00915 whole entry): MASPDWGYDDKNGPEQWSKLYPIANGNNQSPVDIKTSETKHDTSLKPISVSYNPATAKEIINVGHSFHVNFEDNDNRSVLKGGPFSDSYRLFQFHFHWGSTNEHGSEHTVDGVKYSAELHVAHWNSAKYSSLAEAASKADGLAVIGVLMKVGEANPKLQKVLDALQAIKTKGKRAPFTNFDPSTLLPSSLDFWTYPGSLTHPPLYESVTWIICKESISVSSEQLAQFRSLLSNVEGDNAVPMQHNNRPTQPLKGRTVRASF

Carbonic anhydrase 2 = Carbonic anhydrase 2 (Homo sapiens, UniProt P00918)
Carbonic anhydrase 3 = Carbonic anhydrase 3 (Homo sapiens, UniProt P07451)
Sequence of Carbonic anhydrase 3 (P07451 whole entry): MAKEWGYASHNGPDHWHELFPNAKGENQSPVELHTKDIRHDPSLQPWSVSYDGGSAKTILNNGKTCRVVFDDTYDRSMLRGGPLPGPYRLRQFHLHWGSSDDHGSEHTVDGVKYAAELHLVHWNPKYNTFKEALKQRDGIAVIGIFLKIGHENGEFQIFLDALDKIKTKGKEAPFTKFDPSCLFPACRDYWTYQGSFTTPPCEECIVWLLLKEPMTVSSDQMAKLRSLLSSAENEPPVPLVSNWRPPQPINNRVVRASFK

Carbonic anhydrase 4 = Carbonic anhydrase 4 (Homo sapiens, UniProt P22748)
Sequence of Carbonic anhydrase 4 (P22748 whole entry): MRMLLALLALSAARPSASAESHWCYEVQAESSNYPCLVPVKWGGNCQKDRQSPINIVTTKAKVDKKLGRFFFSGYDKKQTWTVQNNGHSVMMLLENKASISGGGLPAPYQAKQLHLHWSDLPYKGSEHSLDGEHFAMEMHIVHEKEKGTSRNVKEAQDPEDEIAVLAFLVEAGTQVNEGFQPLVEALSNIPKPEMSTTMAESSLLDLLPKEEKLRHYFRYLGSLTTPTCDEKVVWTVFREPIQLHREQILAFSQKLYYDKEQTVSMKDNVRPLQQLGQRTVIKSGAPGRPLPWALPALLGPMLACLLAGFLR

[1] = target: Carbonic anhydrase 5A, mitochondrial (Homo sapiens, UniProt P35218)
Sequence of Carbonic anhydrase 5A, mitochondrial (P35218 whole entry): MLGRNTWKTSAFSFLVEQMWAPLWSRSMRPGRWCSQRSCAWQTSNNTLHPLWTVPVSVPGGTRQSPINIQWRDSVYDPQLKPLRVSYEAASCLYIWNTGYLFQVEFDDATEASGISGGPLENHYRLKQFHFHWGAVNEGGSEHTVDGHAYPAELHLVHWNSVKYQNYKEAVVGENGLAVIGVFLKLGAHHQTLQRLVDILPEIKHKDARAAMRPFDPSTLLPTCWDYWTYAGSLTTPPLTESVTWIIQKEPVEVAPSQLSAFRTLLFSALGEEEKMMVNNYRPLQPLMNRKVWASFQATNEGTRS

[2] = target: Carbonic anhydrase 5B, mitochondrial (Homo sapiens, UniProt Q9Y2D0)
Sequence of Carbonic anhydrase 5B, mitochondrial (Q9Y2D0 whole entry): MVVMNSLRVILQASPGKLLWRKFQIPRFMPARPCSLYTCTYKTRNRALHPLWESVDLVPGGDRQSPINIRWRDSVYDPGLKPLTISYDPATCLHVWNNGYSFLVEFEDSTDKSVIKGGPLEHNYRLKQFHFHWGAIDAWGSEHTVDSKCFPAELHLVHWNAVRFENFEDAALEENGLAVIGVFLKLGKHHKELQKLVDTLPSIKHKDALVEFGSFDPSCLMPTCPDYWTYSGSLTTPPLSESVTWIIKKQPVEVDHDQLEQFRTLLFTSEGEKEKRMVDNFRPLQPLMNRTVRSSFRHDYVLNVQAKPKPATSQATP

Carbonic anhydrase 6 = Carbonic anhydrase 6 (Homo sapiens, UniProt P23280)
Sequence of Carbonic anhydrase 6 (P23280 whole entry): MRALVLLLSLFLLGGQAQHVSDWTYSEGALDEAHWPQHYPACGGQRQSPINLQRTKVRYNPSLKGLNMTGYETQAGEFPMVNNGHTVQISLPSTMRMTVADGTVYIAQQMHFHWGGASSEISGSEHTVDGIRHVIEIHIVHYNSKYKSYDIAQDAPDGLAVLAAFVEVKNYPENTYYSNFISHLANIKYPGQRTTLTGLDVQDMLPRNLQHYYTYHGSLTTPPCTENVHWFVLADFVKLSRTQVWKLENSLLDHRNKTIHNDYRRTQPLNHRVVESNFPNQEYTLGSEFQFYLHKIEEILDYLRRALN

Carbonic anhydrase 7 = Carbonic anhydrase 7 (Homo sapiens, UniProt P43166)
Sequence of Carbonic anhydrase 7 (P43166 whole entry): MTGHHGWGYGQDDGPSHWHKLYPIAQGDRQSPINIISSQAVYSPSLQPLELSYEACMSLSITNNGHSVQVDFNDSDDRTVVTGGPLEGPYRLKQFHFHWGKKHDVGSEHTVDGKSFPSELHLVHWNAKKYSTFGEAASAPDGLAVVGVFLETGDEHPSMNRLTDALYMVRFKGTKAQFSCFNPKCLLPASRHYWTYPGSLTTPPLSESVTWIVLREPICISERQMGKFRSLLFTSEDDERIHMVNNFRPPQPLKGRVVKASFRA

Carbonic anhydrase 13 = Carbonic anhydrase 13 (Mus musculus, UniProt Q9D6N1)
Sequence of Carbonic anhydrase 13 (Q9D6N1 whole entry): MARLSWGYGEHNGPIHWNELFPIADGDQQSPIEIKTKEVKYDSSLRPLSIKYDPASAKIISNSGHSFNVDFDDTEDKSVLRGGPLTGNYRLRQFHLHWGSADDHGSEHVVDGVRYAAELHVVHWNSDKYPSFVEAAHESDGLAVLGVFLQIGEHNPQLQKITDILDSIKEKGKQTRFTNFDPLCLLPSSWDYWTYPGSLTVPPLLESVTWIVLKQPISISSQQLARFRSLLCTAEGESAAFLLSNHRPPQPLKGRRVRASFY

Carbonic anhydrase 14 = Carbonic anhydrase 14 (Homo sapiens, UniProt Q9ULX7)
Sequence of Carbonic anhydrase 14 (Q9ULX7 whole entry): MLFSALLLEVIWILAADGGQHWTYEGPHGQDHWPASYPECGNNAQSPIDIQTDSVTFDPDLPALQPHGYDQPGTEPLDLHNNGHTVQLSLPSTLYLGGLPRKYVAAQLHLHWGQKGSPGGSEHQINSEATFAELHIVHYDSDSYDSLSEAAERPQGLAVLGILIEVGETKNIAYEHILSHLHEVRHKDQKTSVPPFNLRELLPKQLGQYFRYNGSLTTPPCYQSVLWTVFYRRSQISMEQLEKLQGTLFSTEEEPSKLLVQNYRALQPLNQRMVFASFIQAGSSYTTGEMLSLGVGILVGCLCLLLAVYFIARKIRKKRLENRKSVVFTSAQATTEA

Carbonic anhydrase 9 = Carbonic anhydrase 9 (Homo sapiens, UniProt Q16790)

Sequence of Carbonic anhydrase 12 (O43570 whole entry): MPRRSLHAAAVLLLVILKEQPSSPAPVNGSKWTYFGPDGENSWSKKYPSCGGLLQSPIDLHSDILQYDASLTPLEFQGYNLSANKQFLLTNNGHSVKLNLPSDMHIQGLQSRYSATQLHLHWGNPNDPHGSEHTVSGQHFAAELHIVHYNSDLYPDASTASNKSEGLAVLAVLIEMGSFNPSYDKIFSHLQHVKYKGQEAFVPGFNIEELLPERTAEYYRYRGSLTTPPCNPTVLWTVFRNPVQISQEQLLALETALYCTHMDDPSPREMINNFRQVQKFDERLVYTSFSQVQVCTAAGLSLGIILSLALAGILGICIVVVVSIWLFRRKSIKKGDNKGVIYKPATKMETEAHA

NCCCCCN
Ki (Carbonic anhydrase 12): 0.45 µM | Ki (Carbonic anhydrase 15): 0.65 µM | Ki (Carbonic anhydrase 1): 13.3 µM | Ki (Carbonic anhydrase 2): 11 µM | Ki (Carbonic anhydrase 3): 0.5 µM | Ki (Carbonic anhydrase 4): 0.052 µM | Ki [1]: 0.044 µM | Ki [2]: 0.54 µM | Ki (Carbonic anhydrase 6): 0.74 µM | Ki (Carbonic anhydrase 7): 0.42 µM | Ki (Carbonic anhydrase 13): 0.63 µM | Ki (Carbonic anhydrase 14): 0.5 µM

CC(C)(C)OC(=O)N(CCCCN(CCCNC(=O)C(F)(F)F)C(=O)OC(C)(C)C)CCCNC(=O)C(F)(F)F
Ki (Carbonic anhydrase 12): 175 µM | Ki (Carbonic anhydrase 15): > 500 µM | Ki (Carbonic anhydrase 1): > 500 µM | Ki (Carbonic anhydrase 2): 107 µM | Ki (Carbonic anhydrase 3): 112 µM | Ki (Carbonic anhydrase 4): 104 µM | Ki [1]: 125 µM | Ki [2]: 103 µM | Ki (Carbonic anhydrase 6): 104 µM | Ki (Carbonic anhydrase 7): 107 µM | Ki (Carbonic anhydrase 13): 179 µM | Ki (Carbonic anhydrase 14): 85 µM

NCCNCCCNCCN
Ki (Carbonic anhydrase 9): 48 µM | Ki (Carbonic anhydrase 12): 68 µM | Ki (Carbonic anhydrase 15): 66 µM | Ki (Carbonic anhydrase 1): 115 µM | Ki (Carbonic anhydrase 2): 75 µM | Ki (Carbonic anhydrase 3): 63 µM | Ki (Carbonic anhydrase 4): 44 µM | Ki [1]: 50 µM | Ki [2]: 59 µM | Ki (Carbonic anhydrase 6): 53 µM | Ki (Carbonic anhydrase 7): 58 µM | Ki (Carbonic anhydrase 13): 66 µM | Ki (Carbonic anhydrase 14): 36 µM

CN(C)CCN(C)CCN(C)CCN(C)C
Ki (Carbonic anhydrase 9): 0.31 µM | Ki (Carbonic anhydrase 12): 0.52 µM | Ki (Carbonic anhydrase 15): 0.76 µM | Ki (Carbonic anhydrase 1): > 500 µM | Ki (Carbonic anhydrase 2): 11.2 µM | Ki (Carbonic anhydrase 3): 0.52 µM | Ki (Carbonic anhydrase 4): 0.053 µM | Ki [1]: 0.047 µM | Ki [2]: 0.71 µM | Ki (Carbonic anhydrase 6): 0.78 µM | Ki (Carbonic anhydrase 7): 0.73 µM | Ki (Carbonic anhydrase 13): 0.58 µM | Ki (Carbonic anhydrase 14): 0.74 µM

NCCNc1cccc2ccccc12
Ki (Carbonic anhydrase 9): 0.51 µM | Ki (Carbonic anhydrase 12): 0.38 µM | Ki (Carbonic anhydrase 15): 0.57 µM | Ki (Carbonic anhydrase 1): > 500 µM | Ki (Carbonic anhydrase 2): 103 µM | Ki (Carbonic anhydrase 3): 0.42 µM | Ki (Carbonic anhydrase 4): 0.058 µM | Ki [1]: 0.048 µM | Ki [2]: 0.061 µM | Ki (Carbonic anhydrase 6): 0.64 µM | Ki (Carbonic anhydrase 7): 0.36 µM | Ki (Carbonic anhydrase 13): 0.62 µM | Ki (Carbonic anhydrase 14): 0.59 µM

O=C(NCCCNCCCCNCCCNC(=O)C(F)(F)F)C(F)(F)F
Ki (Carbonic anhydrase 9): 11.4 µM | Ki (Carbonic anhydrase 12): 10.2 µM | Ki (Carbonic anhydrase 15): 110 µM | Ki (Carbonic anhydrase 1): 136 µM | Ki (Carbonic anhydrase 2): 11.3 µM | Ki (Carbonic anhydrase 3): 11.5 µM | Ki (Carbonic anhydrase 4): 0.116 µM | Ki [1]: 1.26 µM | Ki [2]: 1.05 µM | Ki (Carbonic anhydrase 6): 1.1 µM | Ki (Carbonic anhydrase 7): 1.09 µM | Ki (Carbonic anhydrase 13): 12.6 µM | Ki (Carbonic anhydrase 14): 6.7 µM

O=C(NCCNCCCNCCNC(=O)C(F)(F)F)C(F)(F)F
Ki (Carbonic anhydrase 9): 117 µM | Ki (Carbonic anhydrase 12): 112 µM | Ki (Carbonic anhydrase 15): 104 µM | Ki (Carbonic anhydrase 1): 122 µM | Ki (Carbonic anhydrase 2): 112 µM | Ki (Carbonic anhydrase 3): 96 µM | Ki (Carbonic anhydrase 4): 108 µM | Ki [1]: 62 µM | Ki [2]: 54 µM | Ki (Carbonic anhydrase 6): 156 µM | Ki (Carbonic anhydrase 7): 108 µM | Ki (Carbonic anhydrase 13): 131 µM | Ki (Carbonic anhydrase 14): 125 µM

CC(C)(C)OC(=O)N(CCCN(CCNC(=O)C(F)(F)F)C(=O)OC(C)(C)C)CCNC(=O)C(F)(F)F
Ki (Carbonic anhydrase 9): > 500 µM | Ki (Carbonic anhydrase 12): > 500 µM | Ki (Carbonic anhydrase 15): > 500 µM | Ki (Carbonic anhydrase 1): > 500 µM | Ki (Carbonic anhydrase 2): > 500 µM | Ki (Carbonic anhydrase 3): > 500 µM | Ki (Carbonic anhydrase 4): 309 µM | Ki [1]: 416 µM | Ki [2]: 401 µM | Ki (Carbonic anhydrase 6): > 500 µM | Ki (Carbonic anhydrase 7): > 500 µM | Ki (Carbonic anhydrase 13): > 500 µM | Ki (Carbonic anhydrase 14): > 500 µM

O=C(NCCNCCNCCNC(=O)C(F)(F)F)C(F)(F)F
Ki (Carbonic anhydrase 9): > 500 µM | Ki (Carbonic anhydrase 12): > 500 µM | Ki (Carbonic anhydrase 15): > 500 µM | Ki (Carbonic anhydrase 1): > 500 µM | Ki (Carbonic anhydrase 2): > 500 µM | Ki (Carbonic anhydrase 3): > 500 µM | Ki (Carbonic anhydrase 4): > 500 µM | Ki [1]: > 500 µM | Ki [2]: > 500 µM | Ki (Carbonic anhydrase 6): > 500 µM | Ki (Carbonic anhydrase 7): > 500 µM | Ki (Carbonic anhydrase 13): > 500 µM | Ki (Carbonic anhydrase 14): > 500 µM

CC(C)(C)OC(=O)N(CCNC(=O)C(F)(F)F)CCN(CCNC(=O)C(F)(F)F)C(=O)OC(C)(C)C
Ki (Carbonic anhydrase 9): > 500 µM | Ki (Carbonic anhydrase 12): > 500 µM | Ki (Carbonic anhydrase 15): > 500 µM | Ki (Carbonic anhydrase 1): > 500 µM | Ki (Carbonic anhydrase 2): > 500 µM | Ki (Carbonic anhydrase 3): > 500 µM | Ki (Carbonic anhydrase 4): > 500 µM | Ki [1]: > 500 µM | Ki [2]: > 500 µM | Ki (Carbonic anhydrase 6): > 500 µM | Ki (Carbonic anhydrase 7): > 500 µM | Ki (Carbonic anhydrase 13): > 500 µM | Ki (Carbonic anhydrase 14): > 500 µM

CC(=O)NCCNc1cccc2ccccc12
Ki (Carbonic anhydrase 9): 12.2 µM | Ki (Carbonic anhydrase 12): 21.5 µM | Ki (Carbonic anhydrase 15): 110 µM | Ki (Carbonic anhydrase 1): > 500 µM | Ki (Carbonic anhydrase 2): 121 µM | Ki (Carbonic anhydrase 3): 128 µM | Ki (Carbonic anhydrase 4): 12.3 µM | Ki [1]: 106 µM | Ki [2]: 107 µM | Ki (Carbonic anhydrase 6): 109 µM | Ki (Carbonic anhydrase 7): 1.24 µM | Ki (Carbonic anhydrase 13): 127 µM | Ki (Carbonic anhydrase 14): 34 µM

CC(C)(C)OC(=O)N(CCCN)CCCCN(CCCN)C(=O)OC(C)(C)C
Ki (Carbonic anhydrase 9): 144 µM | Ki (Carbonic anhydrase 12): 165 µM | Ki (Carbonic anhydrase 15): 236 µM | Ki (Carbonic anhydrase 1): 137 µM | Ki (Carbonic anhydrase 2): 110 µM | Ki (Carbonic anhydrase 3): 132 µM | Ki (Carbonic anhydrase 4): 103 µM | Ki [1]: 131 µM | Ki [2]: 107 µM | Ki (Carbonic anhydrase 6): 114 µM | Ki (Carbonic anhydrase 7): 108 µM | Ki (Carbonic anhydrase 13): 136 µM | Ki (Carbonic anhydrase 14): 115 µM

NCCCCCCN
Ki (Carbonic anhydrase 9): 0.41 µM | Ki (Carbonic anhydrase 12): 0.37 µM | Ki (Carbonic anhydrase 15): 0.66 µM | Ki (Carbonic anhydrase 1): 12.6 µM | Ki (Carbonic anhydrase 2): 34.4 µM | Ki (Carbonic anhydrase 3): 0.6 µM | Ki (Carbonic anhydrase 4): 0.45 µM | Ki [1]: 0.61 µM | Ki [2]: 0.58 µM | Ki (Carbonic anhydrase 6): 0.72 µM | Ki (Carbonic anhydrase 7): 0.44 µM | Ki (Carbonic anhydrase 13): 0.69 µM | Ki (Carbonic anhydrase 14): 0.64 µM

NCCNCCN
Ki (Carbonic anhydrase 9): 10.6 µM | Ki (Carbonic anhydrase 12): 11.4 µM | Ki (Carbonic anhydrase 15): 105 µM | Ki (Carbonic anhydrase 1): 415 µM | Ki (Carbonic anhydrase 2): 118 µM | Ki (Carbonic anhydrase 3): 117 µM | Ki (Carbonic anhydrase 4): 116 µM | Ki [1]: 110 µM | Ki [2]: 11 µM | Ki (Carbonic anhydrase 6): 11.5 µM | Ki (Carbonic anhydrase 7): 12.1 µM | Ki (Carbonic anhydrase 13): 11.5 µM | Ki (Carbonic anhydrase 14): 10.1 µM

Oc1ccccc1 [PHENOL]
Ki [2]: > 500 µM | Ki (Carbonic anhydrase 7): > 500 µM | Ki (Carbonic anhydrase 13): > 500 µM

NCCCCNCCCN [SPERMIDINE]
Ki (Carbonic anhydrase 9): 1.37 µM | Ki (Carbonic anhydrase 12): 44.1 µM | Ki (Carbonic anhydrase 15): 10 µM | Ki (Carbonic anhydrase 1): 1.4 µM | Ki (Carbonic anhydrase 2): 1.11 µM | Ki (Carbonic anhydrase 3): 11.5 µM | Ki (Carbonic anhydrase 4): 0.112 µM | Ki [1]: 1.22 µM | Ki [2]: 1.44 µM | Ki (Carbonic anhydrase 6): 1.41 µM | Ki (Carbonic anhydrase 7): 1.23 µM | Ki (Carbonic anhydrase 13): 11.6 µM | Ki (Carbonic anhydrase 14): 1 µM

NCCCNCCCCNCCCN [SPERMINE]
Ki (Carbonic anhydrase 9): 13.3 µM | Ki (Carbonic anhydrase 12): 27.6 µM | Ki (Carbonic anhydrase 15): 74 µM | Ki (Carbonic anhydrase 1): 231 µM | Ki (Carbonic anhydrase 3): 167 µM | Ki [1]: 0.84 µM | Ki [2]: 0.83 µM | Ki (Carbonic anhydrase 6): 0.99 µM | Ki (Carbonic anhydrase 7): 0.71 µM | Ki (Carbonic anhydrase 13): 22.6 µM | Ki (Carbonic anhydrase 14): 0.86 µM

NCCNCCNCCN [TRIENTINE]
Ki (Carbonic anhydrase 9): 39 µM | Ki (Carbonic anhydrase 12): 57 µM | Ki (Carbonic anhydrase 15): 59 µM | Ki (Carbonic anhydrase 1): 100 µM | Ki (Carbonic anhydrase 2): 64 µM | Ki (Carbonic anhydrase 3): 48 µM | Ki (Carbonic anhydrase 4): 35 µM | Ki [1]: 38 µM | Ki [2]: 49 µM | Ki (Carbonic anhydrase 6): 43 µM | Ki (Carbonic anhydrase 7): 45 µM | Ki (Carbonic anhydrase 13): 52 µM | Ki (Carbonic anhydrase 14): 12.1 µM
